How the values were obtained:
[1] = system: PLC5 cells (a hepatocellular carcinoma cell line); assay: Cytotoxicity, MTT cell viability assay; format: cell-based; conditions: 72 h exposure
Method: PLC5 cells (a hepatocellular carcinoma cell line) were seeded at 5×10^3 cells per well in 96-well plates. Then, cells were exposed to SC derivatives at the indicated doses for 72 h. After that, cells were incubated with MTT (1 mg/ml) (Sigma-Aldrich, St. Louis, Mo.) for 2 h at 37° C. Cell viability was then assessed by measuring the absorbance at 570 nm using a microplate reader.

[2] = biological target: Recombinant SHP-1 protein (Homo sapiens, UniProt P29350); assay: SHP-1 phosphatase activity assay (RediPlate 96 EnzChek Tyrosine Phosphatase Assay kit); format: biochemical; conditions: SC derivatives at 1 μM for 2 hr; recombinant SHP-1 25 ng; control DMSO = 100; mean±SD (N=3)
Sequence of Recombinant SHP-1 protein (P29350 whole entry): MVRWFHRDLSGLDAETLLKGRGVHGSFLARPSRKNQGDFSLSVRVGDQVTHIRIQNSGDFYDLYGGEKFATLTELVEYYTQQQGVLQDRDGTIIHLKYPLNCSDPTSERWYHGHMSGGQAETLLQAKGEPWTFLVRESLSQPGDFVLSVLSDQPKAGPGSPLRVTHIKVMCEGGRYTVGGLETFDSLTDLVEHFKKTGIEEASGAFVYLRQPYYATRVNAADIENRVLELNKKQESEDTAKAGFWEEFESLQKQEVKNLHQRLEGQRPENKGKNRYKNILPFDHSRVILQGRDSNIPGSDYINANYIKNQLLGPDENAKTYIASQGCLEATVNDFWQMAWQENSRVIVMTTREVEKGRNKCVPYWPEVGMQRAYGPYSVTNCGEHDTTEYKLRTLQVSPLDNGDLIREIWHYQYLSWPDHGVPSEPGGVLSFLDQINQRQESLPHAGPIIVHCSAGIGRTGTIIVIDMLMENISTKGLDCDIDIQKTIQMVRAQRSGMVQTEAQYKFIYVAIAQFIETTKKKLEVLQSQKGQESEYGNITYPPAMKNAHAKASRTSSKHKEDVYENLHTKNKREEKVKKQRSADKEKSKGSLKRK
Method: Effects of SC Derivatives on Phosphatase Activity in Recombinant SHP-1 RediPlate 96 EnzChek Tyrosine Phosphatase Assay kit (R-22067) was used for SHP-1 activity assay (Molecular Probes). Recombinant SHP-1 protein (25 ng) was reacted with SC derivatives at 1 μM for 2 hr. Then the SHP-1 phosphatase activity assay was performed according to the user's manual and the absorbance was measured at 465 nm. The control group was DMSO, which functioned as the solvent of the SC derivatives. The values were expressed by mean±SD (N=3).

SMILES | SHP-1 Activity (% of control) [2] | IC50 [1] [nM]
C#Cc1cccc(NC(=O)Nc2cccc(Oc3ccc(C#N)cc3)c2)c1 [compound 65, 1-(3-(4-cyanophenoxy)phenyl)-3-(3-ethynylphenyl)urea] | 84.35 ± 22.40 % of control | 1410
Cc1ccc(NC(=O)C2(C(=O)O)CC2)cc1Oc1ccc(C#N)cc1 [compound 68] | 84.36 ± 11.31 % of control | > 10000
N#Cc1ccc(Oc2cccc(NC(=O)C(=O)Nc3ccc(Cl)c(C(F)(F)F)c3)c2)cc1 [compound 69, N^1-(4-chloro-3-(trifluoromethyl)phenyl)-N^2-(3-(4-cyanophenoxy)phenyl) oxalamide] | 95.16 ± 6.91 % of control | > 10000
N#CC1=CCC(OC2=CC(NC(=O)C(=O)Nc3cccc(Oc4ccc(C#N)cc4)c3)CC=C2)C=C1 (stereo not shown) [compound 70, N^1-(3-((4-cyanocyclohexa-2,4-dien-1-yl)oxy)cyclohexa-2,4-dien-1-yl)-N^2-(3-(4-cyanophenoxy)phenyl)oxalamide] | 91.23 ± 15.95 % of control | > 10000
CC1=CCC(NC(=O)C(=O)Nc2ccc(C)c(Oc3ccc(C#N)cc3)c2)C=C1OC1C=CC(C#N)=CC1 (stereo not shown) [compound 71, N^1-(3-((4-cyanocyclohexa-2,4-dien-1-yl)oxy)-4-methylcyclohexa-2,4-dien-1-yl)-N^2-(3-(4-cyanophenoxy)-4-methylphenyl)oxalamide] | 87.54 ± 10.21 % of control | 210
N#Cc1ccc(Oc2ccc3cccc(NC(=O)Nc4ccc(Cl)c(C(F)(F)F)c4)c3c2)cc1 [compound 72, 1-(4-chloro-3-(trifluoromethyl)phenyl)-3-(7-(4-cyanophenoxy)naphthalen-1-yl)urea] | 131.47 ± 14.99 % of control | 2250
N#Cc1ccc(Oc2ccc3cccc(NC(=O)Nc4cccc5ccc(Oc6ccc(C#N)cc6)cc45)c3c2)cc1 [compound 73, 1,3-bis(7-(4-cyanophenoxy)naphthalen-1-yl)urea] | 102.24 ± 17.36 % of control | > 10000
N#Cc1ccc(Oc2ccc3cccc(NC(=O)C4(C(=O)O)CC4)c3c2)cc1 [compound 75, 1-((7-(4-cyanophenoxy)naphthalen-1-yl)carbamoyl)cyclopropane carboxylic acid] | 111.30 ± 9.50 % of control | > 10000
O=C(Nc1ccc(Cl)c(C(F)(F)F)c1)Nc1ccc(Cl)c(C(F)(F)F)c1 [compound 78, 1,3-bis(4-chloro-3-(trifluoromethyl)phenyl)urea] | 113.65 ± 13.93 % of control | > 10000
N#Cc1ccc(Oc2cccc(NC(=O)Nc3ccc(Cl)c(C(F)(F)F)c3)c2)cc1Cl [compound 79, 1-(4-chloro-3-(trifluoromethyl)phenyl)-3-(3-(3-chloro-4-cyanophenoxy)phenyl)urea] | 112.25 ± 0.60 % of control | 820
N#Cc1ccc(Oc2cccc(NC(=O)Nc3ccc(Cl)c(C(F)(F)F)c3)c2)c(F)c1 [compound 80, 1-(4-chloro-3-(trifluoromethyl)phenyl)-3-(3-(4-cyano-2-fluorophenoxy)phenyl) urea] | X91.93 ± 8.09 % of control | 1670
Cc1ccc(NC(=O)Nc2ccc(C)c(Oc3ccc(C#N)c(Br)c3)c2)cc1Oc1ccc(C#N)c(Br)c1 [compound 83, 1,3-bis(3-(3-bromo-4-cyanophenoxy)-4-methylphenyl)urea] | 110.68 ± 13.38 % of control | 250
Cc1ccc(NC(=O)Nc2ccc(C)c(Oc3ccc(C#N)c(F)c3)c2)cc1Oc1ccc(C#N)c(F)c1 [compound 84, 1,3-bis(3-(4-cyano-3-fluorophenoxy)-4-methylphenyl)urea] | 108.62 ± 10.55 % of control | > 10000
Cc1ccc(NC(=O)Nc2ccc(C)c(Oc3ccc(C#N)cc3F)c2)cc1Oc1ccc(C#N)cc1F [compound 85, 1,3-bis(3-(4-cyano-2-fluorophenoxy)-4-methylphenyl)urea] | 91.42 ± 10.47 % of control | > 10000
Cc1ccc(NC(=O)Nc2ccc(Cl)c(C(F)(F)F)c2)cc1Oc1ccc(C#N)nc1 [compound 87, 1-(4-chloro-3-(trifluoromethyl)phenyl)-3-(3-((6-cyanopyridin-3-yl)oxy)-4-methylphenyl)urea] | 264.67 ± 32.11 % of control | 970
Cc1ccc(NC(=O)Nc2ccc(Cl)c(C(F)(F)F)c2)cc1Oc1ccc(C#N)c(F)c1 [compound 88, 1-(4-chloro-3-(trifluoromethyl)phenyl)-3-(3-(4-cyano-3-fluorophenoxy)-4-methylphenyl)urea] | 100.48 ± 13.31 % of control | 1050
Cc1ccc(NC(=O)Nc2ccc(Cl)c(C(F)(F)F)c2)cc1Oc1ccc(C#N)c(Br)c1 [compound 89, 1-(3-(3-bromo-4-cyanophenoxy)-4-methylphenyl)-3-(4-chloro-3-(trifluoromethyl)phenyl)urea] | 143.45 ± 15.17 % of control | 830
Cc1ccc(NC(=O)Nc2ccc(C)c(Oc3ccc(/C(N)=N/O)cc3)c2)cc1Oc1ccc(/C(N)=N/O)cc1 [compound 94, (1Z,1′Z)-4,4′-(((carbonylbis(azanediyl))bis(2-methyl-5,1-phenylene))bis(oxy))bis(N′-hydroxybenzimidamide)] | 114.65 ± 13.55 % of control | > 10000
N#Cc1ccc(Oc2ccc(NC(=O)Nc3ccc(Cl)c(C(F)(F)F)c3)c(F)c2)cc1 [compound 96, 1-(4-chloro-3-(trifluoromethyl)phenyl)-3-(4-(4-cyanophenoxy)-2-fluorophenyl)urea] | 194.52 ± 17.89 % of control | 410
Cc1cc(Oc2cc(NC(=O)Nc3ccc(C)c(Oc4ccc(C#N)c(C)c4)c3)ccc2C)ccc1C#N [compound 98, 1,3-bis(3-(4-cyano-3-methylphenoxy)-4-methylphenyl)urea] | 88.80 ± 14.30 % of control | 140
Cc1cc(Oc2cc(NC(=O)Nc3ccc(C)c(Oc4ccc(C#N)nc4)c3)ccc2C)ccc1C#N [compound 102, 1-(3-(4-cyano-3-methylphenoxy)-4-methylphenyl)-3-(3-((6-cyanopyridin-3-yl)oxy)-4-methylphenyl)urea] | 140.46 ± 12.56 % of control | 160

More lines, main results first:

SHP-1 Activity (% of control) [2] | SMILES | IC50 [1] [nM]
93.26 ± 9.30 % of control | C#Cc1cccc(NC(=O)Nc2ccc(C)c(Oc3ccc(C#N)cc3)c2)c1 [compound 66, 1-(3-(4-cyanophenoxy)-4-methylphenyl)-3-(3-ethynylphenyl)urea] | > 10000
94.05 ± 16.11 % of control | N#Cc1ccc(Oc2cccc(NC(=O)C3(C(=O)Nc4cccc(Oc5ccc(C#N)cc5)c4)CC3)c2)cc1 [compound 67, N, N′-bis(3-(4-cyanophenoxy)phenyl)cyclopropane-1,1-dicarboxamide] | > 10000
92.68 ± 5.66 % of control | Cc1ccc(NC(=O)Nc2ccc(C)c(Oc3ccc(C#N)c(Cl)c3)c2)cc1Oc1ccc(C#N)c(Cl)c1 [compound 82, 1,3-bis(3-(3-chloro-4-cyanophenoxy)-4-methylphenyl)urea] | 4140
81.06 ± 7.61 % of control | Cc1ccc(NC(=O)Nc2ccc(C)c(Oc3ccc(C#N)nc3)c2)cc1Oc1ccc(C#N)nc1 [compound 86, 1,3-bis(3-((6-cyanopyridin-3-yl)oxy)-4-methylphenyl)urea] | > 10000
95.78 ± 10.66 % of control | Cc1cc(Oc2ccc(C#N)cc2)ccc1NC(=O)Nc1ccc(Oc2ccc(C#N)cc2)cc1C [compound 90, 1,3-bis(4-(4-cyanophenoxy)-2-methylphenyl)urea] | > 10000
99.99 ± 4.52 % of control | N#Cc1ccc(Oc2ccc(Cl)c(NC(=O)Nc3cc(Oc4ccc(C#N)cc4)ccc3Cl)c2)cc1 [compound 91, 1,3-bis(2-chloro-5-(4-cyanophenoxy)phenyl)urea] | > 10000
252.27 ± 10.78 % of control | N#Cc1ccc(Oc2cc(NC(=O)Nc3ccc(Cl)c(Oc4ccc(C#N)cc4)c3)ccc2Cl)cc1 [compound 92, 1,3-bis(4-chloro-3-(4-cyanophenoxy)phenyl)urea] | > 10000
94.07 ± 0.82 % of control | Cc1ccc(Oc2ccc(C#N)cc2)cc1NC(=O)Nc1cc(Oc2ccc(C#N)cc2)ccc1C [compound 93, 1,3-bis(5-(4-cyanophenoxy)-2-methylphenyl)urea] | > 10000
127.01 ± 9.02 % of control | N#Cc1ccc(Oc2ccc(F)c(NC(=O)Nc3cc(Oc4ccc(C#N)cc4)ccc3F)c2)cc1 [compound 97, 1,3-bis(5-(4-cyanophenoxy)-2-fluorophenyl)urea] | > 10000
99.86 ± 3.65 % of control | Cc1ccc(NC(=O)Nc2ccc(C)c(Oc3ccc(C#N)nc3)c2)cc1Oc1ccc(C#N)cc1 [compound 99, 1-(3-(4-cyanophenoxy)-4-methylphenyl)-3-(3-((6-cyanopyridin-3-yl)oxy)-4-methylphenyl)urea] | 180
94.38 ± 11.11 % of control | Cc1ccc(NC(=O)Nc2ccc(C)c(Oc3ccc(C#N)c(Cl)c3)c2)cc1Oc1ccc(C#N)cc1 [compound 100, 1-(3-(3-chloro-4-cyanophenoxy)-4-methylphenyl)-3-(3-(4-cyanophenoxy)-4-methylphenyl)urea] | 110
